{"source": "ChEMBL document CHEMBL1201862", "about": "“PubChem BioAssay data set” (2004)", "key": {"[1]": {"test_system": "HEK293", "experiment": "cells", "assay_type": "functional, cell-based", "conditions": "Homo sapiens"}, "[2]": {"test_system": "HEK293", "experiment": "inhibition of NOD1-driven NF-kB reporter – cell-based, luminescence, uHTS, primary screen (AID 1578)", "assay_type": "functional", "conditions": "Homo sapiens"}, "[3]": {"molecular_target": "T1, Histone-lysine N-methyltransferase NSD2 (Homo sapiens, UniProt O96028)", "T1 sequence (O96028 whole entry)": "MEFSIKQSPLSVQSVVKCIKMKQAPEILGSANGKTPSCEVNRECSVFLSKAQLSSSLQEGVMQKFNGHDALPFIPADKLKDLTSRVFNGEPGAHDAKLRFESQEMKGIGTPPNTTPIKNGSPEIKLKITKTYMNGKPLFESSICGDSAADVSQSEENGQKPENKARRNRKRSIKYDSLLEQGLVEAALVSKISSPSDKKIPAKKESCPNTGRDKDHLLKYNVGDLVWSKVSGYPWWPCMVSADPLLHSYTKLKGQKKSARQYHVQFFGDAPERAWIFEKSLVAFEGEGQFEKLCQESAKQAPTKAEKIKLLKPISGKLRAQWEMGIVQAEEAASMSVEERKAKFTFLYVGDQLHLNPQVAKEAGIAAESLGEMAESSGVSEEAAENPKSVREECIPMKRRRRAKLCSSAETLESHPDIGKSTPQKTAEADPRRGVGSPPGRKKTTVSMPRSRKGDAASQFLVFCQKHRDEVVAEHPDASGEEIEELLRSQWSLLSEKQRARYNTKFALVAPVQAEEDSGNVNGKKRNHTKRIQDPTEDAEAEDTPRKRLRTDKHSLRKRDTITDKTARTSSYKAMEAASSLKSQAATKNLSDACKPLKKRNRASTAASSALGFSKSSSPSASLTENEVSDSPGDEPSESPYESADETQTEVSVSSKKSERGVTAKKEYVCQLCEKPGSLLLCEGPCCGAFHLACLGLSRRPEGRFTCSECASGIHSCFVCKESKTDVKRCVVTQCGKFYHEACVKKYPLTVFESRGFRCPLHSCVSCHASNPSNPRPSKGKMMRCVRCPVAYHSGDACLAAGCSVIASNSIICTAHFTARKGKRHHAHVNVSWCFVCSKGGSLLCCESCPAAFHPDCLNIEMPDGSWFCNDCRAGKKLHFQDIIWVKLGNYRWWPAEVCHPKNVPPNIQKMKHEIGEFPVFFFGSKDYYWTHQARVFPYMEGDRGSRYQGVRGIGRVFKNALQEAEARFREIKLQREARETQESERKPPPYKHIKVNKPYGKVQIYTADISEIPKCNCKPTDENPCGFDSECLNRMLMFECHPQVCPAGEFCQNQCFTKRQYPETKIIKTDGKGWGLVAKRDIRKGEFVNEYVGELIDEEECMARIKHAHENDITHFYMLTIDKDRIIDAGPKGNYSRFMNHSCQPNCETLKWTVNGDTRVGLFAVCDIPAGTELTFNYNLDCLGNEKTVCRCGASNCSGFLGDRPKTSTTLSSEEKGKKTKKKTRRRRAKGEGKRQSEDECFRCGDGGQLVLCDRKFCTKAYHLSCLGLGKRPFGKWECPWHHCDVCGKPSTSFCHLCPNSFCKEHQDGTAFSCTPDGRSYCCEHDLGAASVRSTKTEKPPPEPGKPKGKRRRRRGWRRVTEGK", "assay_type": "biochemical"}, "[4]": {"molecular_target": "Nucleotide-binding oligomerization domain-containing protein 2 (Homo sapiens, UniProt Q9HC29)", "experiment": "inhibition of NOD2-driven NF-kB reporter – cell-based, luminescence, uHTS, HEK293 (AID 1566)", "assay_type": "functional"}, "[5]": {"test_system": "HEK293", "experiment": "NOD2 signaling inhibitors in MDP-stimulated cells, cell-based, uHTS, luminescence (AID 2001)", "assay_type": "functional", "conditions": "Homo sapiens"}, "[6]": {"test_system": "HEK293", "experiment": "cells", "assay_type": "functional, cell-based", "conditions": "Homo sapiens", "remark": "listed apart in the source"}, "[7]": {"test_system": "HEK293", "experiment": "cells", "assay_type": "functional, cell-based", "conditions": "Homo sapiens", "remark": "listed apart in the source"}, "[8]": {"molecular_target": "T2, Microphthalmia-associated transcription factor (Homo sapiens, UniProt O75030)", "T2 sequence (O75030 whole entry)": "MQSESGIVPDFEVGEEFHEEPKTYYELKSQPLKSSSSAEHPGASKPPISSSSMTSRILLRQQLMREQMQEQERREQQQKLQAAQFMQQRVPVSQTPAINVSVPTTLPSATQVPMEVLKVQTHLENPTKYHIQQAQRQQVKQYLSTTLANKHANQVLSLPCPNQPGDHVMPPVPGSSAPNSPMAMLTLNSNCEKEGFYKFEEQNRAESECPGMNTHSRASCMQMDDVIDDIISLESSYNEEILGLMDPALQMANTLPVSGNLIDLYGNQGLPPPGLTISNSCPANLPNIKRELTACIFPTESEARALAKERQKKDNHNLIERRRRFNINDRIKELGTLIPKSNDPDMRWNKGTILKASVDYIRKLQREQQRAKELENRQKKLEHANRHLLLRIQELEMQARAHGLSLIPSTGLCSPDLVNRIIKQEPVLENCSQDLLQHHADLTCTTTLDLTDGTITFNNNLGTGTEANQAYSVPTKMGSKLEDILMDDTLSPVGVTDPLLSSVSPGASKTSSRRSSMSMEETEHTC", "experiment": "reducers of TRPM1 reporter luminescence, concentration series – cell-based, SK-MEL-5, cherry-picked, set 3, MITF inhibitor project, dose response (AID 493073);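 note: SK-MEL-5 melanoma cells with luciferase driven by the MITF target TRPM1 promoter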", "assay_type": "functional"}, "[9]": {"molecular_target": "DNA (cytosine-5)-methyltransferase 1 (Homo sapiens, UniProt P26358)", "experiment": "inhibition of DNA methylation by DNMT1 – biochemical, fluorescent molecular beacon, confirmation (AID 602386)", "assay_type": "functional"}, "[10]": {"experiment": "viability loss in THP-1 monocytes – THP-1 cells, cytotoxicity control for Vif-APOBEC3G degradation inhibitor project, dose response (AID 1117359)", "assay_type": "functional", "conditions": "THP-1"}, "[11]": {"experiment": "Luminescence Cell-Based Dose Retest to Confirm Inhibitors of Cancer Stem Cells. [Related pubchem assays (depositor defined):AID2717, AID2721]", "assay_type": "functional", "conditions": "Homo sapiens"}, "[12]": {"molecular_target": "T3, Type-1 angiotensin II receptor (Homo sapiens, UniProt P30556)", "T3 sequence (P30556 whole entry)": "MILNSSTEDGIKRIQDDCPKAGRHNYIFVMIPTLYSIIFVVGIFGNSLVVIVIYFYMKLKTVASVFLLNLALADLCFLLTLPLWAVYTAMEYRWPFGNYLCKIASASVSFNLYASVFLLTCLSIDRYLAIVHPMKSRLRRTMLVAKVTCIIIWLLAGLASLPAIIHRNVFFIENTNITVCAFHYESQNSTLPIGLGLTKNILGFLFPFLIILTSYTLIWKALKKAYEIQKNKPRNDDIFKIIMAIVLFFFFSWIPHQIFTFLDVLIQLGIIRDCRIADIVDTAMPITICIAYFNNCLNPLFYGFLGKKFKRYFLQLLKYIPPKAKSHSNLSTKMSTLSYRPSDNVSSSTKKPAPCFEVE", "experiment": "agonist activity at AGTR1 – cell-based, uHTS hits, selectivity assay for APJ receptor agonist project, dose response (AID 488865);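 note: beta-arrestin recruitment to AT1 measured by enzyme fragment complementation luminescence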", "assay_type": "functional"}, "[13]": {"molecular_target": "Cytochrome P450 2C9 (Homo sapiens, UniProt P11712)"}, "[14]": {"molecular_target": "Troponin, cardiac muscle (Homo sapiens, UniProt P19429+P45379+P63316)", "experiment": "Fluorescence-based biochemical high throughput dose response assay for activators of the calcium sensitivity of cardiac Regulated Thin Filaments (RTF). [Related pubchem assays (depositor defined):AID493008, AID493018, AID504382, AID504383]", "assay_type": "protein-complex assay"}, "[15]": {"molecular_target": "T4, Cytochrome P450 1A2 (Homo sapiens, UniProt P05177)", "T4 sequence (P05177 whole entry)": "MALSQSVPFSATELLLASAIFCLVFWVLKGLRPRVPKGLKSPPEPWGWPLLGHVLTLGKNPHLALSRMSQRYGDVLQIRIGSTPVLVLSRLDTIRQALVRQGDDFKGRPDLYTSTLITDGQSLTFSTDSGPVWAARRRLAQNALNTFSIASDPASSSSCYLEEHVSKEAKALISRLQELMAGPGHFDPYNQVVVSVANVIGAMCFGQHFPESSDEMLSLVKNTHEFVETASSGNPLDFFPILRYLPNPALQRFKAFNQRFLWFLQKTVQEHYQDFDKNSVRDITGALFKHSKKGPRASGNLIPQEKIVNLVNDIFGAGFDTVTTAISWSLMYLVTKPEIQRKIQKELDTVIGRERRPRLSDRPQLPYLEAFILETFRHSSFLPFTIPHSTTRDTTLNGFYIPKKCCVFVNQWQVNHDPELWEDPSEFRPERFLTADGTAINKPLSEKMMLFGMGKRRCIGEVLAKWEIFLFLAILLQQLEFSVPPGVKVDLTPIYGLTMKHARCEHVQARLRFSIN"}}, "note": "The source made the active and inactive calls.", "data": [{"molecule": "CC(C)N1C(=O)/C(=C/C=C/c2ccco2)C(=O)N(Cc2ccco2)C1=O", "values": [{"measurement": "IC50", "setting": "[1]", "value": "> 20 µM (inactive)"}, {"measurement": "EC50", "setting": "[2]", "value": "> 20 µM (inactive)"}, {"measurement": "AC50", "setting": "[3]", "value": "8.26 µM (active)"}, {"measurement": "EC50", "setting": "[4]", "value": "> 20 µM (inactive)"}, {"measurement": "IC50", "setting": "[5]", "value": "> 20 µM (inactive)"}, {"measurement": "IC50", "setting": "[6]", "value": "18.8 µM (active)"}, {"measurement": "IC50", "setting": "[7]", "value": "> 20 µM (inactive)"}, {"measurement": "AC50", "setting": "[8]", "value": "9.97 µM (active)"}, {"measurement": "IC50", "setting": "[9]", "value": "8.31 µM (active)"}, {"measurement": "CC50", "setting": "[10]", "value": "> 40 µM (active)"}]}, {"molecule": "CCCCCCc1cc2cc(-c3nnc(-c4cc(OC)c(OC)c(OC)c4)o3)c(=O)oc2cc1O", "values": [{"measurement": "AC50", "setting": "[11]", "value": "7.35 µM (active)"}, {"measurement": "EC50", "setting": "[12]", "value": "> 100 µM (inactive)"}]}, {"molecule": "Cc1cc2nc(C3CCCN(C(=O)NCc4ccccc4)C3)[nH]c2cc1C", "note": "(stereo not given)", "values": [{"measurement": "AC50", "setting": "[13]", "value": "22.4 µM (inconclusive)"}, {"measurement": "EC50", "setting": "[14]", "value": "> 71.6 µM (inactive)"}, {"measurement": "AC50", "setting": "[15]", "value": "25.1 µM (inconclusive)"}]}]}
